# Source: US9980979B2, “Compounds and methods for enhancing erythropoiesis” (NATIONAL YANG-MING UNIVERSITY, priority 2008, dated 2018)
# Assays:
# bone marrow cells = assay: DAF-based hemoglobin colorimetry assay on cultured bone marrow cells from phenylhydrazine-induced anemic mice; type: cell-based, C57BL/6JNarl mice; settings: about 0.1 to about 20 μg/ml, 4 days, with 50 mU/ml EPO; **P<0.01 versus control (0 μg/ml); FIG. 1
# Method: C57BL/6JNarl mice, 8-10 weeks of age, were purchased from the National Laboratory Animal Center (NLAC, Taiwan). Acute hemolytic anemia was induced by a single intraperitoneal (i.p.) injection of phenylhydrazine hydrochloride (Sigma-Aldrich) at a dose of 100 mg/kg in a phosphate buffered saline (PBS). Six days after the injection, bone marrow cells were isolated from mice and cultured according to the procedure described in Worthington et al., (1985) and Rosenthal et al. (1987) with minor modifications. […]
# In the next day, different concentrations of compound A (0, 0.1, 0.5, 2.5, 12.5 and 20 μg/ml) were added to the cells, respectively, and incubated for 4 days. The relative levels of hemoglobin were determined using DAF-based hemoglobin colorimetry assay according to Kaiho (1985) and Worthington (1985) with minor modifications. […] The absorbance at 610 nm was measured by Victor 2 1420 Multilable Counter (Wallac, PerkinElmer). Results were expressed as relative index±S.E. (n=6). Statistical significance was evaluated by Student's t test (**P<0.01 versus control group (0 μg/ml)).
# [1] = comparison with 3,4′,5-trihydroxy-trans-stilbene (data not shown)
# [2] = test system: erythroid progenitor cells (bone marrow cells); assay: BFU-E assay on bone marrow cells isolated from treated mice of the cisplatin-induced acute renal failure model; type: in vivo, C57BL/6JNarl mice; settings: 10~90 mg/kg/day; cells isolated day 28, cultured 12 days; versus control group; FIG. 11
# Method: The effects of Compound A treatment on cisplatin-induced acute renal failure animal model were investigated. C57BL/6JNarl mice (8-week-old) were purchased from the National Laboratory Animal Center (NLAC, Taiwan). Cisplatin (Sigma-Aldrich) was dissolved in normal saline (0.9% (w/v) sodium chloride, Sigma-Aldrich) at a concentration of 1 mg/ml, and injected into mice intraperitoneally (i.p.) according to the following schedule: day 1, 7 mg/kg; day 5, 6 mg/kg; and day 9, 6 mg/kg. For cisplatin-untreated normal mice group, normal saline injections of corresponding volumes were given i.p. in parallel. At day 13, serum samples were collected and blood urea nitrogen (BUN) contents were assayed. […]
# At the end of the experiments described in EXAMPLE 6 (i.e., day 28), mice were sacrificed, kidney and liver tissues were removed, and bone marrow cells were isolated. […] The reverse-transcribed cDNA samples were analyzed by PCR using ABI GeneAmp™ system 2700 (Applied Biosystems) and the SYBR Green Master Mix kit (Applied Biosystems) using primers targeting toward mouse glyceraldehyde 3-phosphate dehydrogenase (GAPDH) (SEQ ID NOs: 5 and 6), erythropoietin (Epo) (SEQ ID NOs: 3 and 4) and hepatocyte growth factor (HGF) (SEQ ID NOs: 7 and 8) (Table 1). Results were expressed as relative index±S.E. (n=5˜6). […]
compound,measurement,setting,value
"OC[C@H]1O[C@@H](Oc2c(O)cc(O)cc2/C=C/c2ccc(O)cc2)[C@H](O)[C@@H](O)[C@@H]1O [Compound A, 2,3,5,4′-tetrahydroxystilbene 2-O-β-D-glucopyranoside]",hemoglobin formation (relative index),bone marrow cells,significantly enhanced hemoglobin formation
same,"enhancing renal functions and improving anemia, compared with 3,4′,5-trihydroxy-trans-stilbene",[1]; data not shown,"superior to 3,4′,5-trihydroxy-trans-stilbene"
same,"enhancing erythropoiesis and kidney functions, compared with 3,4′,5-trihydroxy-trans-stilbene",[1]; no data shown,"superior to 3,4′,5-trihydroxy-trans-stilbene"
same,number of BFU-E colonies of bone marrow cells (relative index),[2],significantly increased the number of BFU-E colonies
